The conditions of data set [1]: 200 μl i.p., 2 mg of gold/ml. The protocol:
(§1) Balb/C mice which had tumors on their thighs (KHJJ line, breast cancer) were used in these experiments. The mice were injected i.p. with 200 μl of liposomes containing 2 mg of gold atoms per/ml solution, and after 24 hours the animals were dissected and various internal organs were harvested, which included the tumor, brain, heart, lungs, spleen, liver, kidneys, and blood. The organs were rinsed and prepared for ICP-MS analysis. In control experiments, mice were injected with a solution containing 2 mg of gold/ml without confinement in liposomes.

The conditions of data set [2]: 200 μl i.p. of 2 mg/ml gold, 24 hours. Here is the method: as §1
1. A solution of gold chloride of 2 mg/ml (2000). The gold was not confined in liposomes. 2. A gold-containing liposome solution (2000) of gold content of 2 mg/ml.

This is an account of results in US20100112040A1, “Preparation of Heavy Metal-Containing Nano-Liposomes and their Uses in Medical Therapy” (S.B. BIOTECHNOLOGIES LTD., priority 2006, published 2010).

Like-named read-outs stand apart in the source and are kept apart here.

For the compound `[Cl][Au]([Cl])[Cl]` [gold chloride solution, gold chloride], the “survival of injected mice (toxicity of gold)” value in data set [1] is on record as “died after 24 hours”. In addition, the “Gold atoms per cell” value in data set [2] (Bladder) was found to be 1.30E+10 atoms per cell; in data set [2] (Blood), 1.37E+08 atoms per cell; in data set [2] (Brain), 1.62E+07 atoms per cell; in data set [2] (Heart) it was 1.63E+09 atoms per cell; in data set [2] (Kidneys), 1.58E+09 atoms per cell; in data set [2] (Liver), 1.88E+08 atoms per cell. In addition, the “Gold atoms per cell” value in data set [2] (Lungs) was 1.36E+08 atoms per cell; in data set [2] (Spleen), 3.34E+08 atoms per cell; in data set [2] (Tumor), 1.10E+08 atoms per cell.
